Among the data in patent US11542255B2, “Sulfonylureas and sulfonylthioureas as NLRP3 inhibitors” (Inflazome Limited, priority 2017, dated 2023) are IC50 values, retold here.

Structures are written as SMILES. pIC50: −log10 of the molar value. Structures can show the parent of a compound that is named as a salt.

The target of assay [1] is T1, NLRP3 (Homo sapiens, UniProt Q96P20). Description: THP-1 cells pyroptosis assay (LPS + nigericin, resazurin readout). It counts as cell-based. More on the design: Seed THP-1 cells (25,000 cells/well) containing 1.0 μg/ml LPS in 40 μl of RPMI medium; host or cells: THP-1 cells. To be noted: NLRP3 inhibitory activity, 1.0 μg/ml LPS, 5 μM nigericin. The protocol:
THP-1 cells (ATCC #TIB-202) were grown in RPMI containing L-glutamine (Gibco #11835) supplemented with 1 mM sodium pyruvate (Sigma #S8636) and penicillin (100 units/ml)/streptomycin (0.1 mg/ml) (Sigma #P4333) in 10% Fetal Bovine Serum (FBS) (Sigma #F0804). The cells were routinely passaged and grown to confluency (˜10^6 cells/ml). On the day of the experiment, THP-1 cells were harvested and resuspended into RPMI medium (without FBS). The cells were then counted and viability (>90%) checked by Trypan blue (Sigma #T8154). Appropriate dilutions were made to give a concentration of 625,000 cells/ml. To this diluted cell solution was added LPS (Sigma #L4524) to give a […] Final Assay Concentration (FAC). 40 μl of the final preparation was aliquoted into each well of a 96-well plate. The plate thus prepared was used for compound screening.
The following method step-by-step assay was followed for compound screening. • 1. Seed THP-1 cells (25,000 cells/well) containing 1.0 μg/ml LPS in 40 μl of RPMI medium (without FBS) in 96-well, black walled, clear bottom cell culture plates coated with poly-D-lysine (VWR #734-0317) • 2. Add 5 μl compound (8 points half-log dilution, with 10 μM top dose) or vehicle (DMSO 0.1% FAC) to the appropriate wells • 3. Incubate for 3 hrs at 37° C. in 5% CO2 • 4. Add 5 μl nigericin (Sigma #N7143) (FAC 5 μM) to all wells • 5. Incubate for 1 hr at 37° C. and 5% CO2 • 6. At the end of the incubation period, spin plates at 300×g for 3 mins and remove supernatant • 7. Then add 50 μl of resazurin (Sigma #R7017) (FAC 100 μM resazurin in RPMI medium without FBS) and incubate plates for a further 1-2 hrs at 37° C. and 5% CO2 • 8. Plates were read in an Envision reader at Ex 560 nm and Em 590 nm • 9. IC50 data is fitted to a non-linear regression equation (log inhibitor vs response-variable slope 4-parameters)
On the technique in general: Resazurin is reduced to fluorescent resorufin, in cell work by metabolically active cells.

Assay [2] has as its target T1, NLRP3. Description: Human whole blood IL1β release assay (LPS + nigericin, AlphaLisa IL-1β). It counts as cell-based. More on the design: Human whole blood in Li-heparin tubes was obtained from healthy donors from a volunteer donor panel; from tissue; host or cells: human whole blood from healthy donors. To be noted: NLRP3 inhibitory activity, 1 μg/ml LPS, 10 μM nigericin, IL-1β release, read-out: HWB IC50. Here is the method:
For systemic delivery, the ability to inhibit NLRP3 when the compounds are present within the bloodstream is of great importance. For this reason, the NLRP3 inhibitory activity of a number of compounds in human whole blood was investigated in accordance with the following protocol.
Human whole blood in Li-heparin tubes was obtained from healthy donors from a volunteer donor panel. • 1. Plate out 80 μl of whole blood containing 1 μg/ml of LPS in 96-well, clear bottom cell culture plate (Corning #3585) • 2. Add 10 μl compound (8 points half-log dilution with 10 μM top dose) or vehicle (DMSO 0.1% FAC) to the appropriate wells • 3. Incubate for 3 hrs at 37° C., 5% CO2 • 4. Add 10 μl Nigericin (Sigma #N7143) (10 μM FAC) to all wells • 5. Incubate for 1 hr at 37° C., 5% CO2 • 6. At the end of the incubation period, spin plates at 300×g for 5 mins to pellet cells and remove 20 μl of supernatant and add to 96-well v-bottom plates for IL-1β analysis (note: these plates containing the supernatants can be stored at −80° C. to be analysed at a later date) • 7. IL-1β was measured according to the manufacturer protocol (Perkin Elmer-AlphaLisa IL-1β Kit AL220F-5000) • 8. IC50 data is fitted to a non-linear regression equation (log inhibitor vs response-variable slope 4-parameters)
(In general: Bead proximity is the source of the signal in Alpha formats.)

T1 sequence (Q96P20 whole entry): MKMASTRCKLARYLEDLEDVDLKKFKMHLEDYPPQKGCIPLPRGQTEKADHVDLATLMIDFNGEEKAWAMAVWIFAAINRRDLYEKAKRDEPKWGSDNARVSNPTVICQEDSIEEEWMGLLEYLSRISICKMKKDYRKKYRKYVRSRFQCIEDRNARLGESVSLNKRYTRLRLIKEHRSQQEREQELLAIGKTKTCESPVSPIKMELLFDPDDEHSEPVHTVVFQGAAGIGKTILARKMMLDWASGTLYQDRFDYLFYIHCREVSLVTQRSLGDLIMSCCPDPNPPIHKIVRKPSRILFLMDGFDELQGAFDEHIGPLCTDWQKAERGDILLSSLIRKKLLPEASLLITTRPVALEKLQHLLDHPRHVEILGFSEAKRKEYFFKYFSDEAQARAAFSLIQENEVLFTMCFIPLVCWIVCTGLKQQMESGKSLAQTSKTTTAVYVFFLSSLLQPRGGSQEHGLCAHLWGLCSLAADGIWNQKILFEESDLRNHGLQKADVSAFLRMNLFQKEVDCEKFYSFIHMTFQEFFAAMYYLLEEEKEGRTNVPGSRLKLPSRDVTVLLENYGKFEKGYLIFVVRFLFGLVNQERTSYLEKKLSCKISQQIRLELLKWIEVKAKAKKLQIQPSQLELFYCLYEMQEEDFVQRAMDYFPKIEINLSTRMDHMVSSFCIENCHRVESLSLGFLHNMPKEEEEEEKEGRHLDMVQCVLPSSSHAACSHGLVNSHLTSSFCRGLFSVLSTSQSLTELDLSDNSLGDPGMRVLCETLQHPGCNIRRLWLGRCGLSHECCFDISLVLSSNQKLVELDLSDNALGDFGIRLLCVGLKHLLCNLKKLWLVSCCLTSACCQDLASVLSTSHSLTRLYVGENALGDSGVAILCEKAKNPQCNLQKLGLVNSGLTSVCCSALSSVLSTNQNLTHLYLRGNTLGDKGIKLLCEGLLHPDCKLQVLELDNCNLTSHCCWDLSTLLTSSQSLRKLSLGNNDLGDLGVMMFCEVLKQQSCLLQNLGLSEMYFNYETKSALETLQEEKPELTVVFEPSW

Usually pIC50 stands for −log10 of the IC50, conventionally taken in molar units. Consider `CC(c1cc(S(=O)(=O)NC(=O)Nc2c3c(cc4c2CCC4)CCC3)nn1C)N1CCC1` (single isomer, unassigned; enantiomer 1) [Example 26, 5-(1-(Azetidin-1-yl)ethyl)-N-((1,2,3,5,6,7-hexahydro-s-indacen-4-yl)carbamoyl)-1-methyl-1H-pyrazole-3-sulfonamide, Sodium Salt (Enantiomer 1)], for which the pIC50 at NLRP3 [1] is 6.80 to 7.40; on NLRP3 [2], over 6.40.

Take `CCC(c1cc(S(=O)(=O)NC(=O)Nc2c3c(cc4c2CCC4)CCC3)nn1C)N(C)C` (single isomer, unassigned; enantiomer 1) [Example 71, 5-(1-(Dimethylamino)propyl)-N-((1,2,3,5,6,7-hexahydro-s-indacen-4-yl)carbamoyl)-1-methyl-1H-pyrazole-3-sulfonamide, Enantiomer 1]: the pIC50 at NLRP3 [1] was over 7.40; on NLRP3 [2] it was over 6.40.

Take `CNCCn1nc(S(=O)(=O)NC(=O)Nc2c3c(cc4c2CCC4)CCC3)cc1C(=O)O` [Example 2, 3-(N-((1,2,3,5,6,7-Hexahydro-s-indacen-4-yl)carbamoyl)sulfamoyl)-1-(2-(methylamino)ethyl)-1H-pyrazole-5-carboxylic Acid]: the negative logarithm of the IC50 (pIC50) on NLRP3 [1] is 5.00 to 5.59.

Regarding `CN1CC(N(C)Cc2cc(S(=O)(=O)NC(=O)Nc3c4c(cc5c3CCC5)CCC4)nn2C)C1` [Example 8, N-((1,2,3,5,6,7-Hexahydro-s-indacen-4-yl)carbamoyl)-1-methyl-5-((methyl(1-methylazetidin-3-yl)amino)methyl)-1H-pyrazole-3-sulfonamide, Sodium Salt], the pIC50 on NLRP3 [1] was 6.19 to 6.80.

Turning to `CC(C)c1cc(F)cc(C(C)C)c1NC(=O)NS(=O)(=O)c1cc(CN(C)C2CN(C)C2)n(C)n1` [Example 9, N-((4-Fluoro-2,6-diisopropylphenyl)carbamoyl)-1-methyl-5-((methyl(1-methylazetidin-3-yl)amino)methyl)-1H-pyrazole-3-sulfonamide, Sodium Salt], the pIC50 on NLRP3 [1] is 5.00 to 5.59.

In the case of `CCn1nc(S(=O)(=O)NC(=O)Nc2c(Br)ccc3c2CCC3)cc1CN(C)C` [Example 16, N-((5-Bromo-2,3-dihydro-1H-inden-4-yl)carbamoyl)-5-((dimethylamino)methyl)-1-ethyl-1H-pyrazole-3-sulfonamide], the pIC50 on NLRP3 [1] is 5.59 to 6.19.

For `CC(C)n1nc(S(=O)(=O)[N-]C(=O)Nc2c3c(cc4c2CCC4)CCC3)cc1C(C)[N+](C)(C)C` (centres unmarked) [Example 18, ((1,2,3,5,6,7-Hexahydro-s-indacen-4-yl)carbamoyl)((1-isopropyl-5-(1-(trimethylammonio)ethyl)-1H-pyrazol-3-yl)sulfonyl)amide], the pIC50 on NLRP3 [1] was 5.59 to 6.19.

In the case of `CC(c1cc(S(=O)(=O)[N-]C(=O)Nc2c3c(cc4c2CCC4)CCC3)nn1C)[N+](C)(C)C` (centres unmarked) [Example 19, ((1,2,3,5,6,7-Hexahydro-s-indacen-4-yl)carbamoyl)((1-methyl-5-(1-(trimethylammonio)ethyl)-1H-pyrazol-3-yl)sulfonyl)amide], the pIC50 at NLRP3 [1] was 5.59 to 6.19.

For the compound `CC(C)c1cc(F)cc(-c2ccnc(C(N)=O)c2)c1NC(=O)NS(=O)(=O)c1cc(CN(C)C)n(C)n1` [Example 28, 4-(2-(3-((5-((Dimethylamino)methyl)-1-methyl-1H-pyrazol-3-yl)sulfonyl)ureido)-5-fluoro-3-isopropylphenyl)picolinamide], the pIC50 at NLRP3 [1] is 5.59 to 6.19.

In the case of `CC(C)c1cc(F)cc(-c2cncnc2)c1NC(=O)NS(=O)(=O)c1cc(CN(C)C)n(C(C)C)n1` [Example 42, 5-((Dimethylamino)methyl)-N-((4-fluoro-2-isopropyl-6-(pyrimidin-5-yl)phenyl)carbamoyl)-1-isopropyl-1H-pyrazole-3-sulfonamide], the pIC50 at NLRP3 [1] was 5.59 to 6.19.

As to `CC(C)c1cc(F)cc(-c2cncnc2)c1NC(=O)NS(=O)(=O)c1cc(CN(C)C)n(C)n1` [Example 43, 5-((Dimethylamino)methyl)-N-((4-fluoro-2-isopropyl-6-(pyrimidin-5-yl)phenyl)carbamoyl)-1-methyl-1H-pyrazole-3-sulfonamide], the pIC50 on NLRP3 [1] was 5.59 to 6.19.

Consider `CC(C)c1cc(F)cc(C(C)C)c1NC(=O)NS(=O)(=O)c1cc(CN(C)C)n(C(C)C)n1` [Example 61, 5-((Dimethylamino)methyl)-N-((4-fluoro-2,6-diisopropylphenyl)carbamoyl)-1-isopropyl-1H-pyrazole-3-sulfonamide], for which the pIC50 on NLRP3 [1] is 6.19 to 6.80.

For the compound `CN(Cc1cc(S(=O)(=O)NC(=O)Nc2c3c(cc4c2CCC4)CCC3)nn1C)C1CC1` [Example 85, 5-((Cyclopropyl(methyl)amino)methyl)-N-((1,2,3,5,6,7-hexahydro-s-indacen-4-yl)carbamoyl)-1-methyl-1H-pyrazole-3-sulfonamide, Sodium Salt], the pIC50 at NLRP3 [1] is 6.19 to 6.80.

As for `CC(C)c1cc(F)cc(C(C)C)c1NC(=O)NS(=O)(=O)c1cc(CN(C)C2CC2)n(C)n1` [Example 87, 5-((Cyclopropyl(methyl)amino)methyl)-N-((4-fluoro-2,6-diisopropylphenyl)carbamoyl)-1-methyl-1H-pyrazole-3-sulfonamide, sodium Salt], the pIC50 on NLRP3 [1] is 5.59 to 6.19.

Turning to `CN(Cc1cc(S(=O)(=O)NC(=O)Nc2c3c(cc4c2CCC4)CCC3)nn1C)CC(F)(F)F` [Example 97, N-((1,2,3,5,6,7-Hexahydro-s-indacen-4-yl)carbamoyl)-1-methyl-5-((methyl(2,2,2-trifluoroethyl)amino)methyl)-1H-pyrazole-3-sulfonamide, Sodium Salt], the pIC50 on NLRP3 [1] is 6.19 to 6.80.

In the case of `COCCN(C)Cc1cc(S(=O)(=O)NC(=O)Nc2c(C(C)C)cc(F)cc2C(C)C)nn1C` [Example 118, N-((4-Fluoro-2,6-diisopropylphenyl)carbamoyl)-5-(((2-methoxyethyl)(methyl)amino)methyl)-1-methyl-1H-pyrazole-3-sulfonamide, Sodium Salt], the pIC50 at NLRP3 [1] was 5.59 to 6.19.

As to `CC(C)c1cc(Cl)cc(C(C)C)c1NC(=O)NS(=O)(=O)c1cc(CN2CCOCC2)n(C)n1` [Example 120, N-((4-Chloro-2,6-diisopropylphenyl)carbamoyl)-1-methyl-5-(morpholinomethyl)-1H-pyrazole-3-sulfonamide, Sodium Salt], on NLRP3 [1], the pIC50 is 5.59 to 6.19.

Consider `Cn1nc(S(=O)(=O)NC(=O)Nc2c3c(cc4c2CCC4)CCC3)cc1CN1CCOCC1` [Example 121, N-((1,2,3,5,6,7-Hexahydro-s-indacen-4-yl)carbamoyl)-1-methyl-5-(morpholinomethyl)-1H-pyrazole-3-sulfonamide], for which the pIC50 at NLRP3 [1] was 5.59 to 6.19.

On to `CC(C)c1cc(Cl)cc(C(C)C)c1NC(=O)NS(=O)(=O)c1cc(C(=O)N(C)CC#N)n(C)n1` [Example 130, 3-(N-((4-Chloro-2,6-diisopropylphenyl)carbamoyl)sulfamoyl)-N-(cyanomethyl)-N,1-dimethyl-1H-pyrazole-5-carboxamide], for which the pIC50 at NLRP3 [1] was 5.59 to 6.19.

As to `CN(C)Cc1nc(S(=O)(=O)NC(=O)Nc2c3c(cc4c2CCC4)CCC3)cn1C` [Example 167, 2-((Dimethylamino)methyl)-N-((1,2,3,5,6,7-hexahydro-s-indacen-4-yl)carbamoyl)-1-methyl-1H-imidazole-4-sulfonamide], the pIC50 at NLRP3 [1] is 5.00 to 5.59.

With `CCn1nc(S(=O)(=O)NC(=O)Nc2c(-c3cccc(OC)c3)ccc3c2CCC3)cc1CN(C)C` [Example 182], at NLRP3 [1], the pIC50 is 5.59 to 6.19.
